The text below walks through data of paper PMC3891892 (Nature, 2013).

Test [1] concerns recombinant virus possessing Hangzhou/1 HA. In kind it is binding, influenza A virus (H7N9).
Test [2] relates to CA04 (A/California/04/2009; H1N1). In words: microbe, parasite or virus in culture. In kind it is cell-based. The settings on record: Influenza A virus, H1N1, MDCK, read-out: IC50, plaque reduction assay. Background: Plaques are areas of infected cells; plaque reduction assays count them against a control.
The next test has as its system CA04. Also noted: species or system mice. The settings on record: mouse, in vivo, po.

Values after ≈ are worked out from the molar mass of the structure shown.

Turning to `CC(=O)N[C@H]1[C@H]([C@H](O)[C@H](O)CO)OC(C(=O)O)=C[C@@H]1N=C(N)N` [Zanamivir, zanamivir], in test [1], the “effect of inhibition of NA enzymatic function on glycan binding” value is “substantial increases in binding to α2–3 linked sialosides”. In the case of `NC(=O)c1nc(F)c[nH]c1=O` [favipiravir], in test [2], the IC50 – broadly, the concentration at which inhibition is half-maximal – amounted to 1.2 µg/mL (≈ 7.64 µM). For the same compound, the therapeutic effectiveness result in the test on CA04 is reported as “clear therapeutic effectiveness”.
